The values that follow come from PubChem BioAssay (NCI).

Each structure is given as a SMILES string.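 Five compound concentrations were applied to cells in 96-well plates for 48 hours; endpoints were derived by simple linear interpolation of the resulting dose-response curve. GI50 is the concentration that inhibits growth by half. TGI: total growth inhibition.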

Test systems include T-47D breast; UACC-62 melanoma; OVCAR-5 ovarian; SF-268 CNS; OVCAR-3 ovarian; EKVX NSCLC; RXF 393 renal; HCC-2998 colon; KM12 colon; RPMI-8226 leukemia.
Common to all, as to assay: DTP human tumour cell line panel, 48 h

Usually GI50 stands for the concentration giving 50% growth inhibition. The term TGI denotes the concentration giving total growth inhibition. Regarding `COc1c(O)c2c3c(c1OC)-c1ccccc1CC3N(S(=O)(=O)c1ccc(C)cc1)CC2` (stereo not given), the GI50 in the assay with T-47D breast was 1.56 µM; in the assay with UACC-62 melanoma, 2.41 µM; with OVCAR-5 ovarian, 2.69 µM; in the assay with SF-268 CNS, 4.56 µM; in the assay on OVCAR-3 ovarian it was 1.18 µM; in the assay on EKVX NSCLC, 4.04 µM. For the same molecule, the GI50 in the assay on RXF 393 renal is 1.34 µM; in the assay with HCC-2998 colon it was 4.01 µM; with KM12 colon, 1.76 µM; in the assay on RPMI-8226 leukemia, 1.51 µM. The TGI in the assay on T-47D breast is 27.9 µM; with UACC-62 melanoma, > 50 µM; in the assay with OVCAR-5 ovarian, > 50 µM; in the assay on SF-268 CNS it was > 50 µM; in the assay on OVCAR-3 ovarian it was 2.68 µM; with EKVX NSCLC, > 50 µM. For the same molecule, the TGI was 4.12 µM in the assay with RXF 393 renal, 34.1 µM with HCC-2998 colon, > 50 µM with KM12 colon and 4.25 µM in the assay with RPMI-8226 leukemia.
On to `O=C1CCS/C(=N/S(=O)(=O)c2ccc(N3N=C4c5ccccc5CC4C3c3cccs3)cc2)N1Cc1ccccc1` (stereo not given), for which the GI50 in the assay on T-47D breast was 45.6 µM; in the assay with UACC-62 melanoma, 16.7 µM; with OVCAR-5 ovarian, 22.4 µM; in the assay with SF-268 CNS, > 100 µM; with OVCAR-3 ovarian, 25.9 µM; with EKVX NSCLC, 25.7 µM. Besides, the GI50 in the assay with RXF 393 renal is 21.2 µM; in the assay on HCC-2998 colon, 17.9 µM; in the assay on KM12 colon, 17.1 µM; with RPMI-8226 leukemia, 18.1 µM. For the same molecule, the TGI with T-47D breast was > 100 µM; in the assay on UACC-62 melanoma it was 32.3 µM; with OVCAR-5 ovarian, 44.9 µM; with SF-268 CNS, > 100 µM; in the assay on OVCAR-3 ovarian, 60.8 µM; with EKVX NSCLC it was 65.8 µM. The TGI is 63.9 µM in the assay on RXF 393 renal, 33.2 µM in the assay on HCC-2998 colon, 41 µM with KM12 colon and > 100 µM in the assay on RPMI-8226 leukemia.
With `CN(C)c1ccc(C2CC(C)(O)Oc3cc4c(cc32)OCO4)cc1` (stereo not given), the TGI in the assay with T-47D breast, in the assay on UACC-62 melanoma, with OVCAR-5 ovarian, in the assay on SF-268 CNS, with OVCAR-3 ovarian and with EKVX NSCLC was > 100 µM in each case. Moreover, the TGI in the assay on RXF 393 renal was > 100 µM; in the assay with HCC-2998 colon, 95.1 µM; in the assay on KM12 colon, > 100 µM; with RPMI-8226 leukemia it was 47.6 µM.
For the molecule `COC(=O)c1ccc2[nH]c(O)c(C(=Nc3ccc(N(C)C(=O)CN4CCN(C)CC4)cc3)c3ccccc3)c2c1`, the GI50 with T-47D breast was 11.9 µM; with UACC-62 melanoma, 4.02 µM; in the assay on OVCAR-5 ovarian, 2.63 µM; in the assay with SF-268 CNS it was 1.33 µM; in the assay on OVCAR-3 ovarian, 1.41 µM; in the assay on EKVX NSCLC, 2.98 µM. Also, the concentration for 50% growth inhibition (GI50) with RXF 393 renal was 0.422 µM; with HCC-2998 colon, 3.89 µM; in the assay on KM12 colon, 0.0353 µM; in the assay on RPMI-8226 leukemia, 1.92 µM. The TGI is 33.4 µM in the assay on T-47D breast; 13.8 µM in the assay with UACC-62 melanoma; 6.8 µM in the assay with OVCAR-5 ovarian; 7.94 µM in the assay on SF-268 CNS; 3.23 µM with OVCAR-3 ovarian; 16.2 µM in the assay on EKVX NSCLC. In addition, the TGI in the assay with RXF 393 renal was found to be 1.69 µM; in the assay on HCC-2998 colon it was 18.2 µM; in the assay with KM12 colon, 5.52 µM; in the assay on RPMI-8226 leukemia, 8.34 µM.
`Fc1ccc(-c2nn3c(COc4ccc(Cl)cc4)nnc3s2)cc1Oc1ccccc1`: the GI50 in the assay with T-47D breast is 28 µM; in the assay on UACC-62 melanoma, 32.4 µM; in the assay with OVCAR-5 ovarian, 24.5 µM; with SF-268 CNS, 20 µM; with OVCAR-3 ovarian it was 14.1 µM; with EKVX NSCLC, 30.8 µM. Besides, the GI50 with RXF 393 renal was 26.3 µM; in the assay on HCC-2998 colon, 30.6 µM; in the assay on KM12 colon, 40.8 µM; in the assay on RPMI-8226 leukemia it was 13.9 µM. For the same molecule, the TGI was > 66.3 µM with T-47D breast; > 63.4 µM in the assay on UACC-62 melanoma; > 59.1 µM with OVCAR-5 ovarian; 54.1 µM with SF-268 CNS; 37.8 µM with OVCAR-3 ovarian; > 74.2 µM in the assay on EKVX NSCLC. In addition, the TGI in the assay on RXF 393 renal was 87.5 µM; in the assay on HCC-2998 colon, 92.8 µM; in the assay with KM12 colon it was > 100 µM; in the assay with RPMI-8226 leukemia it was 29 µM.
As for `CC1=C2[C@@H](CC1)[C@]1(C)O[C@@](C3CC3)(C[C@H]1OC(=O)CO)[C@H]2OC(=O)/C=C/c1ccccc1`, the GI50 is 12.1 µM in the assay on T-47D breast; 14.3 µM in the assay on UACC-62 melanoma; 17.5 µM in the assay with OVCAR-5 ovarian; 4.03 µM with SF-268 CNS; 15.3 µM in the assay on OVCAR-3 ovarian; 11.5 µM in the assay with EKVX NSCLC. Also, the concentration for 50% growth inhibition (GI50) in the assay with RXF 393 renal is 0.0218 µM; in the assay with HCC-2998 colon, 16.9 µM; in the assay on KM12 colon it was 16.6 µM; with RPMI-8226 leukemia, 19.8 µM. The TGI with T-47D breast worked out at 36.6 µM; with UACC-62 melanoma, 29.4 µM; in the assay with OVCAR-5 ovarian, 36.5 µM; with SF-268 CNS it was 23.1 µM; with OVCAR-3 ovarian it was 29.2 µM; with EKVX NSCLC, 25.1 µM. The TGI in the assay on RXF 393 renal came to 0.858 µM; in the assay with HCC-2998 colon, 33.2 µM; in the assay on KM12 colon, 32.3 µM; with RPMI-8226 leukemia, 54.4 µM.
